According to patent publication US8435978B2, “Substituted sulfonamide compounds” (Gruenenthal GmbH, priority 2006, dated 2013):

Legend:
B1R receptor of the rat = molecular target: T1, B1R receptor of the rat (Rattus norvegicus, UniProt P97583); assay: Functional study on the bradykinin receptor 1 (B1R), FLIPR Ca2+ assay, rB1R cells; type: cell-based; settings: agonist Des-Arg9-bradykinin 100 nM, % inhibition compared with the maximum achievable inhibition; for inhibition at 10 µM: CHO-K1, test substance 10 μM, read-out: B1R Antagonism, rat [10 μM] % Inhibition; for B1R Antagonism, rat [10 μM] % Inhibition: test substance 10 μM, rB1R CHO K1 cells
T1 construct: host or cells: CHO K1 cells (Chinese hamster ovary), stably transfected
T1 sequence (P97583 1-337): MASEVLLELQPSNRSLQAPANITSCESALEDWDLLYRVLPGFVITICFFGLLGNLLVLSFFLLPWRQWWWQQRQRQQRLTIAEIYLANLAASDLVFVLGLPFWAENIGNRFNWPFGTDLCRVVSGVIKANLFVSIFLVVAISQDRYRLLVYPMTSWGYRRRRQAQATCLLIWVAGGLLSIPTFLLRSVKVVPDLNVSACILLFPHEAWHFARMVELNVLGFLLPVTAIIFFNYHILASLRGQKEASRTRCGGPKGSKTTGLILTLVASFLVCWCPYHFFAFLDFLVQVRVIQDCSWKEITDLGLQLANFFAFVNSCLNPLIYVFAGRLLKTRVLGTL
How it was run: (§1)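 CHO K1 cells stably expressing human or rat B1R were loaded with Fluo-4 and read on a FLIPR (ex 488/em 540 nm, peak fluorescence). Test compounds at 10 μM were added first, then after 10 min agonist: Lys-Des-Arg9-bradykinin 0.5 nM for hB1R, Des-Arg9-bradykinin 100 nM for rB1R; % inhibition versus maximum inhibition.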

human B1R receptor = molecular target: T2, human B1R receptor (Homo sapiens, UniProt P46663); assay: Functional study on the bradykinin receptor 1 (B1R), FLIPR Ca2+ assay, hB1R cells; type: cell-based; settings: agonist Lys-Des-Arg9-bradykinin 0.5 nM, % inhibition compared with the maximum achievable inhibition; for inhibition at 10 µM: CHO-K1, test substance 10 μM, read-out: B1R Antagonism, human [10 μM] % Inhibition; for B1R Antagonism, human [10 μM] % Inhibition: test substance 10 μM, hB1R CHO K1 cells
T2 construct: host or cells: CHO K1 cells (Chinese hamster ovary), stably transfected
T2 sequence (P46663 1-353): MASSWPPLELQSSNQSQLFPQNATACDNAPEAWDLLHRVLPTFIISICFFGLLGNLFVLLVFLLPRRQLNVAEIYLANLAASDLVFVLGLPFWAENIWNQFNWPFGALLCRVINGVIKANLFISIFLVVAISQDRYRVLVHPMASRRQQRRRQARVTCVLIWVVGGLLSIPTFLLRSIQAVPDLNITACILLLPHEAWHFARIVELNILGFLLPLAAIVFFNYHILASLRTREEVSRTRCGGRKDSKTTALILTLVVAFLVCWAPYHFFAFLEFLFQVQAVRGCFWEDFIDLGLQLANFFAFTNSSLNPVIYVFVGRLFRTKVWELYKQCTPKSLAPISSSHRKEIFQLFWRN
How it was run: as §1

Row | SMILES | inhibition at 10 µM (B1R receptor of the rat) | inhibition at 10 µM (human B1R receptor) | B1R Antagonism, rat [10 μM] % Inhibition (B1R receptor of the rat) | B1R Antagonism, human [10 μM] % Inhibition (human B1R receptor)
1 | O=C(COCC1CCCCN1S(=O)(=O)c1ccc(Cl)c(Cl)c1)N1CCN(c2ccc(F)cc2)CC1 (stereo not drawn) [Example 59, 2-[1-(3,4-dichloro-phenylsulfonyl)-piperidin-2-ylmethoxy]-1-[4-(4-fluoro-phenyl)-piperazin-1-yl]-ethanone] | 0% | 61.5% | – | –
2 | O=C(COCC1CCCN1S(=O)(=O)c1ccc(Cl)c(Cl)c1)N1CCN(CC2CCCCC2)CC1 (stereo not drawn) [Example 54, 1-(4-cyclohexylmethyl-piperazin-1-yl)-2-[1-(3,4-dichloro-phenylsulfonyl)-pyrrolidin-2-ylmethoxy]-ethanone] | 0% | 63.8% | – | –
3 | CC(C)c1cc(C(C)C)c(S(=O)(=O)N2CCCCC2COCC(=O)N2CCN(C3CCN(C)CC3)CC2)c(C(C)C)c1 (stereo not drawn) [Example 119, 1-(4-(1-methylpiperidin-4-yl)piperazin-1-yl)-2-((1-(2,4,6-triisopropylphenylsulfonyl)piperidin-2-yl)methoxy)ethanone] | 61.9% | 95.9% | – | –
4 | Cc1cc(Br)cc(C)c1S(=O)(=O)N1CCCCC1COCC(=O)N1CCC(CCN2CCCC2)CC1 (stereo not drawn) [Example 149, 2-((1-(4-bromo-2,6-dimethylphenylsulfonyl)piperidin-2-yl)methoxy)-1-(4-(2-(pyrrolidin-1-yl)ethyl)piperidin-1-yl)ethanone] | 100% | 99.4% | – | –
5 | O=C(COCC1CCCCN1S(=O)(=O)c1cccc(Br)c1)N1CCN(c2ccncc2)CC1 (stereo not drawn) [Example 122, 2-((1-(3-bromophenylsulfonyl)piperidin-2-yl)methoxy)-1-(4-(pyridin-4-yl)piperazin-1-yl)ethanone] | 13% | 12.1% | – | –
6 | CCN(CC)CCN(CCN(CC)CC)C(=O)COCC1Cc2ccccc2CN1S(=O)(=O)c1ccc(Cl)c(Cl)c1 (stereo not drawn) [Example 43, 2-[2-(3,4-dichloro-phenylsulfonyl)-1,2,3,4-tetrahydro-isoquinolin-3-ylmethoxy]-N,N-bis-(2-diethylamino-ethyl)-acetamide] | 24.2% | 69.9% | – | –
7 | CN1CCC(N2CCN(C(=O)COCC3CCCCN3S(=O)(=O)c3ccc(Br)cc3)CC2)CC1 (stereo not drawn) [Example 123, 2-((1-(4-bromophenylsulfonyl)piperidin-2-yl)methoxy)-1-(4-(1-methylpiperidin-4-yl)piperazin-1-yl)ethanone] | 79.9% | 43.9% | – | –
8 | COCCN1CCN(C(=O)COCC2CCCCN2S(=O)(=O)c2ccc(Cl)c(Cl)c2)CC1 (stereo not drawn) [Example 46, 2-[1-(3,4-dichloro-phenylsulfonyl)-piperidin-2-ylmethoxy]-1-[4-(2-methoxy-ethyl)-piperazin-1-yl]-ethanone] | 0% | 68.2% | – | –
9 | O=C(COCC1Cc2ccccc2CN1S(=O)(=O)c1ccc(Cl)c(Cl)c1)N1CCC(N2CCCC2)CC1 (stereo not drawn) [Example 38, 2-((2-(3,4-dichlorophenylsulfonyl)-1,2,3,4-tetrahydroisoquinolin-3-yl)methoxy)-1-(4-(pyrrolidin-1-yl)piperidin-1-yl)ethanone] | 65.4% | 75% | – | –

The remaining lines, values ahead:

Row | inhibition at 10 µM (B1R receptor of the rat) | inhibition at 10 µM (human B1R receptor) | B1R Antagonism, rat [10 μM] % Inhibition (B1R receptor of the rat) | B1R Antagonism, human [10 μM] % Inhibition (human B1R receptor) | SMILES
10 | 102% | 97.8% | – | – | CN(CCc1ccncc1)C(=O)COCC1CCCCN1S(=O)(=O)c1c(Cl)cc(Cl)cc1Cl (stereo not drawn) [Example 391, N-methyl-N-(2-(pyridin-4-yl)ethyl)-2-((1-(2,4,6-trichlorophenylsulfonyl)piperidin-2-yl)methoxy)acetamide]
11 | 93% | 104% | – | – | COc1cc(C)c(S(=O)(=O)N2CCCCC2COCC(=O)N2CCN(C(C)C)CC2)c(C)c1 (stereo not drawn) [Example 291, 1-(4-isopropylpiperazin-1-yl)-2-((1-(4-methoxy-2,6-dimethylphenylsulfonyl)piperidin-2-yl)methoxy)ethanone]
12 | 94.5% | 26.9% | – | – | COc1ccc(C2CCCCN2C(=O)COCC2CCCCN2S(=O)(=O)c2c(C)cc(C)cc2C)cn1 (stereo not drawn) [Example 227, 2-((1-(mesitylsulfonyl)piperidin-2-yl)methoxy)-1-(2-(6-methoxypyridin-3-yl)piperidin-1-yl)ethanone]
13 | 98.2% | 103% | – | – | COc1cc(C)c(S(=O)(=O)N2CCCCC2COCC(=O)N2CCC(c3ccncc3)CC2)c(C)c1 (stereo not drawn) [Example 201, 2-((1-(4-methoxy-2,6-dimethylphenylsulfonyl)piperidin-2-yl)methoxy)-1-(4-(pyridin-4-yl)piperidin-1-yl)ethanone]
14 | 102% | 25.2% | – | – | O=C(COCC1CCCCN1S(=O)(=O)c1c(Cl)cccc1Cl)N1CCN(c2nc3ccc(Cl)cc3s2)CC1 (stereo not drawn) [Example 554, 1-(4-(6-chlorobenzo[d]thiazol-2-yl)piperazin-1-yl)-2-((1-(2,6-dichlorophenylsulfonyl)piperidin-2-yl)methoxy)ethanone]
15 | 101% | 101% | – | – | COc1cc(C)c(S(=O)(=O)N2CCCC2COCC(=O)N2CCCN(C)CC2)c(C)c1 (stereo not drawn) [Example 467, 2-((1-(4-methoxy-2,6-dimethylphenylsulfonyl)pyrrolidin-2-yl)methoxy)-1-(4-methyl-1,4-diazepan-1-yl)ethanone]
16 | 102% | 104% | – | – | COc1cc(C)c(S(=O)(=O)N2CCCC2COCC(=O)N2CCC(CCN3CCCCC3)CC2)c(C)c1 (stereo not drawn) [Example 268, 2-((1-(4-methoxy-2,6-dimethylphenylsulfonyl)pyrrolidin-2-yl)methoxy)-1-(4-(2-(piperidin-1-yl)ethyl)piperidin-1-yl)ethanone]
17 | 102% | 101% | – | – | COc1cc(C)c(S(=O)(=O)N2CCCCC2COCC(=O)N2CCN(Cc3cnc(N(C)c4ccc(F)cc4)nc3)CC2)c(C)c1 (stereo not drawn) [Example 214, 1-(4-((2-((4-fluorophenyl)(methyl)amino)pyrimidin-5-yl)methyl)piperazin-1-yl)-2-((1-(4-methoxy-2,6-dimethylphenylsulfonyl)piperidin-2-yl)methoxy)ethanone]
18 | 102% | 102% | – | – | COc1cc(C)c(S(=O)(=O)N2CCCCC2COCC(=O)N2CCC(COc3ccncc3)CC2)c(C)c1 (stereo not drawn) [Example 188, 2-((1-(4-methoxy-2,6-dimethylphenylsulfonyl)piperidin-2-yl)methoxy)-1-(4-((pyridin-4-yloxy)methyl)piperidin-1-yl)ethanone]
19 | 96.9% | 100% | – | – | O=C(COC[C@@H]1Cc2ccccc2CN1S(=O)(=O)c1ccc(Cl)cc1Cl)N1CCC(CCN2CCCC2)CC1 [Example 183, (S)-2-((2-(2,4-dichlorophenylsulfonyl)-1,2,3,4-tetrahydroisoquinolin-3-yl)methoxy)-1-(4-(2-(pyrrolidin-1-yl)ethyl)piperidin-1-yl)ethanone]
20 | – | – | 99.56% | 87.21% | COc1cc(C)c(S(=O)(=O)N2CCCCC2COCC(=O)N(CCN(C)C)Cc2ccccc2)c(C)c1 (stereo not drawn) [Example 377]
21 | – | – | 100.16% | 101.93% | COc1cc(C)c(S(=O)(=O)N2CCCCC2COCC(=O)N2CCOC(c3cccnc3)C2)c(C)c1 (stereo not drawn) [Example 207, 2-((1-(4-methoxy-2,6-dimethylphenylsulfonyl)piperidin-2-yl)methoxy)-1-(2-(pyridin-3-yl)morpholin)ethanone]
